Measured values taken from the supplement of paper PMC5908809.

What was measured:
Assay in all cases: relative IC50 (inflection point of fitted viability curve, relative to fitted max inhibition); higher = less sensitive
Settings in all cases: 72 h
DERL-7 (IL-2 2.5 ng/mL) = test system: DERL-7 (IL-2 2.5 ng/mL)
Method: (§1)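 Drug sensitivity and resistance testing: 5 concentrations over a 10,000-fold range, 72 h at 37 °C, viability by CellTiter-Glo normalised to DMSO and benzethonium chloride controls. IC50 is the inflection point of a logistic fit (min fixed at 0, max fitted), so it is relative to the fitted maximal inhibition. Kept only where fitted max inhibition is at least 50%.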

KHYG-1 (IL-2 2.5 ng/mL) = test system: KHYG-1 (IL-2 2.5 ng/mL)
Method: as §1

IMC-1 (IL-2 20 ng/mL) = test system: IMC-1 (IL-2 20 ng/mL)
Method: as §1

KAI3 (IL-2 2.5 ng/mL) = test system: KAI3 (IL-2 2.5 ng/mL)
Method: as §1

YT (IL-2 2.5 ng/mL) = test system: YT (IL-2 2.5 ng/mL)
Method: as §1

NKL (IL-2 2.5 ng/mL) = test system: NKL (IL-2 2.5 ng/mL)
Method: as §1

SNK-6 (IL-2 2.5 ng/mL) = test system: SNK-6 (IL-2 2.5 ng/mL)
Method: as §1

[1] = test system: normal primary NK cells, pool 3 (3 donors) (IL-2 2.5 ng/mL)
Method: as §1

[2] = test system: normal primary NK cells, pool 1 (3 donors), resting (IL-2 0 ng/mL)
Method: as §1

NK-YS (IL-2 2.5 ng/mL) = test system: NK-YS (IL-2 2.5 ng/mL)
Method: as §1

[3] = test system: normal primary NK cells, pool 2 (3 donors) (IL-2 2.5 ng/mL)
Method: as §1

NK-92 (IL-2 2.5 ng/mL) = test system: NK-92 (IL-2 2.5 ng/mL)
Method: as §1

[4] = test system: normal primary NK cells, pool 1 (3 donors) (IL-2 2.5 ng/mL)
Method: as §1

Compound | relative IC50 (DERL-7 (IL-2 2.5 ng/mL)) [nM] | relative IC50 (KHYG-1 (IL-2 2.5 ng/mL)) [nM] | relative IC50 (IMC-1 (IL-2 20 ng/mL)) [nM] | relative IC50 (KAI3 (IL-2 2.5 ng/mL)) [nM] | relative IC50 (YT (IL-2 2.5 ng/mL)) [nM] | relative IC50 (NKL (IL-2 2.5 ng/mL)) [nM] | relative IC50 (SNK-6 (IL-2 2.5 ng/mL)) [nM] | relative IC50 [1] [nM] | relative IC50 [2] [nM] | relative IC50 (NK-YS (IL-2 2.5 ng/mL)) [nM] | relative IC50 [3] [nM] | relative IC50 (NK-92 (IL-2 2.5 ng/mL)) [nM] | relative IC50 [4] [nM]
C1=N/C2=N/c3ccc(OCCN4CCCC4)c(c3)COC/C=C/COCc3cccc(c3)C(=C1)N2 [Pacritinib] | 560 | 826 | 3880 | 569 | 910 | 777 | 1390 | 627 | 838 | 982 | 367 | 1220 | 410
COc1ccc(-c2nc(N3CCOCC3)c3sc(CN(C)c4ncc(C(=O)NO)cn4)cc3n2)cn1 [CUDC-907] | 1.6 | 2.32 | 13 | < 1 | 14.7 | < 1 | 7.89 | 8.82 | 3.45 | 8.33 | 5.81 | 2.64 | 6.42
CO[C@@H]1[C@H](N(C)C(=O)c2ccccc2)C[C@H]2O[C@]1(C)n1c3ccccc3c3c4c(c5c6ccccc6n2c5c31)C(=O)NC4 [Midostaurin] | 217 | 186 | 486 | 175 | 431 | 127 | 115 | 594 | 1050 | 338 | 438 | 330 | 188
CN(C)Cc1ccc(S(=O)(=O)n2ccc(/C=C/C(=O)NO)c2)cc1 [Resminostat] | 1040 | 731 | 3480 | 304 | 1460 | 258 | 829 | 1720 | 268 | 1300 | 1160 | 629 | 667
Cn1cc(CNCC2CCN(c3ncc(C(=O)NO)cn3)CC2)c2ccccc21 [Quisinostat] | 10.6 | 21.4 | 35.8 | 14.7 | 58.3 | 11 | 90.1 | 13.1 | 2.39 | 20.3 | 5.99 | 39.5 | 7.78
O=C(NC1CCNCC1)c1n[nH]cc1NC(=O)c1c(Cl)cccc1Cl [AT7519] | 356 | 753 | 317 | 355 | 424 | 204 | 307 | 381 | 400 | 236 | 319 | 1270 | 265
CC(C)C[C@H](NC(=O)[C@H](CCc1ccccc1)NC(=O)CN1CCOCC1)C(=O)N[C@@H](Cc1ccccc1)C(=O)N[C@@H](CC(C)C)C(=O)[C@@]1(C)CO1 [Carfilzomib] | 0.92 | 2.95 | 3.26 | 1.43 | 3.07 | 3.52 | 2.8 | 2.58 | 1.41 | 2.91 | 1.77 | 1.96 | 1.61
Cn1cncc1[C@@](N)(c1ccc(Cl)cc1)c1ccc2c(c1)c(-c1cccc(Cl)c1)cc(=O)n2C [Tipifarnib] | 91.8 | 35.2 | 1880 | 94.8 | 349 | 401 | 74.1 | 723 | 264 | 61.6 | 1580 | 270 | 1110
O=[N+]([O-])c1ccc2c(c1)S(=O)(=O)C=C2 [Stattic] | 1220 | 1700 | 18900 | 1100 | 1770 | 4710 | 2020 | 1850 | 1170 | 6720 | 1660 | 1800 | 1110
Cc1cc(OCc2nnc(SC3CCCC3)n2-c2cccnc2)ccc1-c1ccc(S(C)(=O)=O)cc1 [NMS-873] | 1410 | 250 | 40.2 | 1270 | 48.7 | 488 | 1440 | 1680 | 455 | 114 | 767 | 506 | 909
